Laboratory results from ChEMBL document CHEMBL1152085, “Novel 3-deoxy-3-descladinosyl-6-O-methyl erythromycin a analogues. Synthesis and in vitro activity” (1997).
Values after ≈ are worked out from the molar mass of the structure shown.

Key:
Format in all cases: functional
Enterococcus faecium [1] = assay: Tested in vitro for minimum inhibitory concentration to produce antibacterial activity against Enterococcus faecium ATCC 8043
Enterococcus faecium [2] = assay: Tested in vitro for minimum inhibitory concentration to produce antibacterial activity against Enterococcus faecium ATCC 8043 in presence of erythromycin A
Escherichia coli [3] = assay: Tested in vitro for minimum inhibitory concentration to produce antibacterial activity against Escherichia coli JUHL
Escherichia coli [4] = assay: Tested in vitro for minimum inhibitory concentration to produce antibacterial activity against Escherichia coli JUHL in presence of erythromycin A
Escherichia coli [5] = assay: Tested in vitro for minimum inhibitory concentration to produce antibacterial activity against Escherichia coli SS
Escherichia coli [6] = assay: Tested in vitro for minimum inhibitory concentration to produce antibacterial activity against Escherichia coli SS in presence of erythromycin A
[7] = system: Staphylococcus epidermidis; assay: Tested in vitro for minimum inhibitory concentration to produce antibacterial activity against Staphylococcus epidermidis 3519
[8] = system: Staphylococcus epidermidis; assay: Tested in vitro for minimum inhibitory concentration to produce antibacterial activity against Staphylococcus epidermidis 3519 in presence of erythromycin A
Streptococcus pyogenes [9] = assay: Tested in vitro for minimum inhibitory concentration to produce antibacterial activity against Streptococcus pyogenes 930
Streptococcus pyogenes [10] = assay: Tested in vitro for minimum inhibitory concentration to produce antibacterial activity against Streptococcus pyogenes 930 in presence of erythromycin A
Streptococcus pyogenes [11] = assay: Tested in vitro for minimum inhibitory concentration to produce antibacterial activity against Streptococcus pyogenes EES61
Streptococcus pyogenes [12] = assay: Tested in vitro for minimum inhibitory concentration to produce antibacterial activity against Streptococcus pyogenes EES61 in presence of erythromycin A
Streptococcus pyogenes [13] = assay: Tested in vitro for minimum inhibitory concentration to produce antibacterial activity against Streptococcus pyogenes PIU 2548
Streptococcus pyogenes [14] = assay: Tested in vitro for minimum inhibitory concentration to produce antibacterial activity against Streptococcus pyogenes PIU 2548 in presence of erythromycin A
Streptococcus agalactiae [15] = assay: Tested in vitro for minimum inhibitory concentration to produce antibacterial activity against Streptococcus agalactiae CMX 508
Streptococcus agalactiae [16] = assay: Tested in vitro for minimum inhibitory concentration to produce antibacterial activity against Streptococcus agalactiae CMX 508 in presence of erythromycin A
Staphylococcus aureus [17] = assay: Tested in vitro for minimum inhibitory concentration to produce antibacterial activity against Staphylococcus aureus 1775
Staphylococcus aureus [18] = assay: Tested in vitro for minimum inhibitory concentration to produce antibacterial activity against Staphylococcus aureus 1775 in presence of erythromycin A
Staphylococcus aureus [19] = assay: Tested in vitro for minimum inhibitory concentration to produce antibacterial activity against Staphylococcus aureus A-5278
Staphylococcus aureus [20] = assay: Tested in vitro for minimum inhibitory concentration to produce antibacterial activity against Staphylococcus aureus A-5278 in presence of erythromycin A
Staphylococcus aureus [21] = assay: Tested in vitro for minimum inhibitory concentration to produce antibacterial activity against Staphylococcus aureus A5177
Staphylococcus aureus [22] = assay: Tested in vitro for minimum inhibitory concentration to produce antibacterial activity against Staphylococcus aureus A5177 in presence of erythromycin A
Staphylococcus aureus [23] = assay: Tested in vitro for minimum inhibitory concentration to produce antibacterial activity against Staphylococcus aureus ATCC 6538P
Staphylococcus aureus [24] = assay: Tested in vitro for minimum inhibitory concentration to produce antibacterial activity against Staphylococcus aureus ATCC 6538P in presence of erythromycin A
Staphylococcus aureus [25] = assay: Tested in vitro for minimum inhibitory concentration to produce antibacterial activity against Staphylococcus aureus CMX 553
Staphylococcus aureus [26] = assay: Tested in vitro for minimum inhibitory concentration to produce antibacterial activity against Staphylococcus aureus CMX 553 in presence of erythromycin A
Staphylococcus aureus [27] = assay: Tested in vitro for minimum inhibitory concentration to produce antibacterial activity against Staphylococcus aureus CMX 642A
Staphylococcus aureus [28] = assay: Tested in vitro for minimum inhibitory concentration to produce antibacterial activity against Staphylococcus aureus CMX 642A in presence of erythromycin A
Streptococcus equinus [29] = assay: Tested in vitro for minimum inhibitory concentration to produce antibacterial activity against Streptococcus bovis A-5169
Streptococcus equinus [30] = assay: Tested in vitro for minimum inhibitory concentration to produce antibacterial activity against Streptococcus bovis A-5169 in presence of erythromycin A
Staphylococcus aureus [31] = assay: Tested in vitro for minimum inhibitory concentration to produce antibacterial activity against Staphylococcus aureus NCTC-10649M
Staphylococcus aureus [32] = assay: Tested in vitro for minimum inhibitory concentration to produce antibacterial activity against Staphylococcus aureus NCTC-10649M in presence of erythromycin A

Row | MIC (Enterococcus faecium [1]) [µg/mL] | MIC (Enterococcus faecium [2]) [µg/mL] | MIC (Escherichia coli [3]) [µg/mL] | MIC (Escherichia coli [4]) [µg/mL] | MIC (Escherichia coli [5]) [µg/mL] | MIC (Escherichia coli [6]) [µg/mL] | MIC [7] [µg/mL] | MIC [8] [µg/mL] | MIC (Streptococcus pyogenes [9]) [µg/mL] | MIC (Streptococcus pyogenes [10]) [µg/mL] | MIC (Streptococcus pyogenes [11]) [µg/mL] | MIC (Streptococcus pyogenes [12]) [µg/mL] | MIC (Streptococcus agalactiae [15]) [µg/mL] | MIC (Streptococcus agalactiae [16]) [µg/mL] | MIC (Staphylococcus aureus [17]) [µg/mL] | MIC (Staphylococcus aureus [18]) [µg/mL] | MIC (Staphylococcus aureus [19]) [µg/mL] | MIC (Staphylococcus aureus [20]) [µg/mL] | MIC (Staphylococcus aureus [21]) [µg/mL] | MIC (Staphylococcus aureus [22]) [µg/mL] | SMILES | further results
1 | 3.1 (≈ 5.27 µM) | 0.05 | > 100 | 50 | 0.78 (≈ 1.32 µM) | 0.2 | 12.5 (≈ 21.2 µM) | 0.2 | > 100 | > 100 | 0.78 (≈ 1.32 µM) | 0.01 | 0.78 (≈ 1.32 µM) | 0.01 | > 100 | > 100 | > 100 | > 100 | 25 (≈ 42.5 µM) | 3.1 | CC[C@H]1OC(=O)[C@H](C)C[C@H](C)[C@@H](O[C@@H]2O[C@H](C)C[C@H](N(C)C)[C@H]2O)[C@](C)(OC)C[C@@H](C)/C(=N\O)[C@H](C)[C@@H](O)[C@]1(C)O | MIC (Streptococcus pyogenes [13]): 1.56 µg/mL (≈ 2.65 µM); MIC (Streptococcus pyogenes [14]): 6.2 µg/mL; MIC (Staphylococcus aureus [23]): 12.5 µg/mL (≈ 21.2 µM); MIC (Staphylococcus aureus [24]): 0.2 µg/mL; MIC (Staphylococcus aureus [25]): 12.5 µg/mL (≈ 21.2 µM); MIC (Staphylococcus aureus [26]): 0.2 µg/mL; MIC (Staphylococcus aureus [27]): 12.5 µg/mL (≈ 21.2 µM); MIC (Staphylococcus aureus [28]): 0.2 µg/mL; MIC (Streptococcus equinus [29]): 0.78 µg/mL (≈ 1.32 µM); MIC (Streptococcus equinus [30]): 0.05 µg/mL; MIC (Staphylococcus aureus [31]): 12.5 µg/mL (≈ 21.2 µM); MIC (Staphylococcus aureus [32]): 0.2 µg/mL
2 | 0.78 (≈ 1.3 µM) | 0.05 | > 100 | 50 | 0.78 (≈ 1.3 µM) | 0.2 | 6.2 (≈ 10.3 µM) | 0.2 | > 100 | > 100 | 0.2 (≈ 0.333 µM) | 0.01 | 0.2 (≈ 0.333 µM) | 0.01 | > 100 | > 100 | > 100 | > 100 | 3.1 (≈ 5.17 µM) | 3.1 | CC[C@H]1OC(=O)[C@H](C)C[C@H](C)[C@@H](O[C@@H]2O[C@H](C)C[C@H](N(C)C)[C@H]2O)[C@](C)(OC)C[C@@H](C)C(=O)[C@H](C)[C@H]2OC(=O)O[C@@]21C | MIC (Streptococcus pyogenes [13]): 0.78 µg/mL (≈ 1.3 µM); MIC (Streptococcus pyogenes [14]): 6.2 µg/mL; MIC (Staphylococcus aureus [23]): 6.2 µg/mL (≈ 10.3 µM); MIC (Staphylococcus aureus [24]): 0.2 µg/mL; MIC (Staphylococcus aureus [25]): 3.1 µg/mL (≈ 5.17 µM); MIC (Staphylococcus aureus [26]): 0.2 µg/mL; MIC (Staphylococcus aureus [27]): 3.1 µg/mL (≈ 5.17 µM); MIC (Staphylococcus aureus [28]): 0.2 µg/mL; MIC (Streptococcus equinus [29]): 0.2 µg/mL (≈ 0.333 µM); MIC (Streptococcus equinus [30]): 0.05 µg/mL; MIC (Staphylococcus aureus [31]): 6.2 µg/mL (≈ 10.3 µM); MIC (Staphylococcus aureus [32]): 0.2 µg/mL
3 | 100 (≈ 166 µM) | 0.1 | > 100 | 50 | 6.2 (≈ 10.3 µM) | 0.39 | 100 (≈ 166 µM) | 0.2 | 100 (≈ 166 µM) | > 100 | 6.2 (≈ 10.3 µM) | 0.01 | 25 (≈ 41.5 µM) | 0.02 | > 100 | > 100 | > 100 | > 100 | 100 (≈ 166 µM) | 6.2 | CC[C@H]1OC(=O)[C@H](C)C[C@H](C)[C@@H](O[C@@H]2O[C@H](C)C[C@H](N(C)C)[C@H]2O)[C@](C)(OC)C[C@@H](C)/C(=N\OC)[C@H](C)[C@@H](O)[C@]1(C)O | MIC (Staphylococcus aureus [23]): 100 µg/mL (≈ 166 µM); MIC (Staphylococcus aureus [24]): 0.2 µg/mL; MIC (Staphylococcus aureus [25]): 100 µg/mL (≈ 166 µM); MIC (Staphylococcus aureus [26]): 0.39 µg/mL; MIC (Staphylococcus aureus [27]): 100 µg/mL (≈ 166 µM); MIC (Staphylococcus aureus [28]): 0.39 µg/mL; MIC (Streptococcus equinus [29]): 3.1 µg/mL (≈ 5.14 µM); MIC (Streptococcus equinus [30]): 0.01 µg/mL; MIC (Staphylococcus aureus [31]): 100 µg/mL (≈ 166 µM); MIC (Staphylococcus aureus [32]): 0.39 µg/mL
4 | 25 (≈ 43.6 µM) | 0.05 | > 100 | 50 | 0.78 (≈ 1.36 µM) | 0.1 | 50 (≈ 87.1 µM) | 0.1 | > 100 | > 100 | 1.56 (≈ 2.72 µM) | 0.02 | 3.1 (≈ 5.4 µM) | 0.02 | > 100 | > 100 | > 100 | > 100 | 25 (≈ 43.6 µM) | 1.56 | CC[C@H]1OC(=O)[C@H](C)C[C@H](C)[C@@H](O[C@@H]2O[C@H](C)C[C@H](N(C)C)[C@H]2O)[C@](C)(OC)C[C@@H](C)C(=O)[C@H](C)[C@@H](O)[C@]1(C)O | MIC (Streptococcus pyogenes [13]): 3.1 µg/mL (≈ 5.4 µM); MIC (Streptococcus pyogenes [14]): 6.2 µg/mL; MIC (Staphylococcus aureus [23]): 25 µg/mL (≈ 43.6 µM); MIC (Staphylococcus aureus [24]): 0.1 µg/mL; MIC (Staphylococcus aureus [25]): 25 µg/mL (≈ 43.6 µM); MIC (Staphylococcus aureus [26]): 0.2 µg/mL; MIC (Staphylococcus aureus [27]): 25 µg/mL (≈ 43.6 µM); MIC (Staphylococcus aureus [28]): 0.2 µg/mL; MIC (Streptococcus equinus [29]): 0.78 µg/mL (≈ 1.36 µM); MIC (Streptococcus equinus [30]): 0.02 µg/mL; MIC (Staphylococcus aureus [31]): 6.2 µg/mL (≈ 10.8 µM); MIC (Staphylococcus aureus [32]): 0.2 µg/mL
